# Assay results as given in patent publication US4065616A, “Processes for production of a 1-N-(α-hydroxy-.PHI.-amino alkanoyl)-3-deoxy-5-O-pentafuranosyl neamine and new compounds produced by the same processes” (Zaidan Hojin Biseibutsu Kagaku Kenkyu Kai, priority 1975, dated 1977).
# Read-outs that look alike come from different tables or passages of the source.
# Key:
# [1] = test system: kanamycin-resistant bacteria; settings: in words, prior work; cited from earlier work
# [2] = test system: Pseudomonas aeruginosa A3; assay: M.I.C. by standard serial dilution method; format: cell-based; settings: P. aeruginosa A3, nutrient agar, 37° C, 18 hours, read-out: minimum inhibitory concentration (M.I.C.)
# Procedure: (§1) These particular compounds, that is, 1-n-(α-hydroxy-ω-aminoalkanoyl)-3'-deoxy-5-O-pentofuranosylneamines according to the aforesaid general formula (I) have useful antibacterial activity against a wide variety of bacteria, including gram-negative bacteria and gram-positive bacteria. The minimum inhibitory concentration (M.I.C.) (mcg/ml) of these compounds against various organisms was determined by a standard serial dilution method at an incubation temperature of 37° C, the estimation being made after 18 hours incubation or each test organism, except that the incubation time was 48 hours for Mycobacterium smegmatis. The incubation medium used was nutrient agar.
# [3] = test system: Pseudomonas aeruginosa GN 315; assay: M.I.C. by standard serial dilution method; format: cell-based; settings: GN315, P. aeruginosa GN 315, nutrient agar, 37° C, 18 hours, read-out: minimum inhibitory concentration (M.I.C.)
# Procedure: as §1
# [4] = test system: Escherichia coli K-12 LA 290 R56; assay: M.I.C. by standard serial dilution method; format: cell-based; settings: K12LA290R56, 18 h, read-out: minimum inhibitory concentration (M.I.C.)
# Procedure: as §1
# Proteus rettgeri GN 311 = assay: M.I.C. by standard serial dilution method; format: cell-based; settings: Providencia rettgeri, GN311, nutrient agar, 37° C, 18 hours, read-out: minimum inhibitory concentration (M.I.C.)
# Procedure: as §1
# Salmonella typhosa T-63 = assay: M.I.C. by standard serial dilution method; format: cell-based; settings: Salmonella enterica, 18 h, read-out: minimum inhibitory concentration (M.I.C.)
# Procedure: as §1
# [5] = test system: Escherichia coli K-12 ML 1410; assay: M.I.C. by standard serial dilution method; format: cell-based; settings: K12ML1410, E. coli K-12 ML 1410, nutrient agar, 37° C, 18 hours, read-out: minimum inhibitory concentration (M.I.C.)
# Procedure: as §1
# [6] = test system: Klebsiella pneumoniae Type 22, No. 3038; assay: M.I.C. by standard serial dilution method; format: cell-based; settings: read-out: minimum inhibitory concentration (M.I.C.)
# Procedure: as §1
# [7] = test system: Staphylococcus aureus FDA 209P; assay: M.I.C. by standard serial dilution method; format: cell-based; settings: FDA209P, read-out: minimum inhibitory concentration (M.I.C.)
# Procedure: as §1
# [8] = test system: Klebsiella pneumoniae PCI 602; assay: M.I.C. by standard serial dilution method; format: cell-based; settings: read-out: minimum inhibitory concentration (M.I.C.)
# Procedure: as §1
# [9] = test system: Escherichia coli K-12 JR66/W677; assay: M.I.C. by standard serial dilution method; format: cell-based; settings: K12JR66/W677, 18 h, read-out: minimum inhibitory concentration (M.I.C.)
# Procedure: as §1
# [10] = test system: Pseudomonas aeruginosa No. 12; assay: M.I.C. by standard serial dilution method; format: cell-based; settings: P. aeruginosa No. 12, nutrient agar, 37° C, 18 hours, read-out: minimum inhibitory concentration (M.I.C.)
# Procedure: as §1
# [11] = test system: Escherichia coli K-12 W677; assay: M.I.C. by standard serial dilution method; format: cell-based; settings: K12W677, E. coli K-12 W677, nutrient agar, 37° C, 18 hours, read-out: minimum inhibitory concentration (M.I.C.)
# Procedure: as §1
# Bacillus subtilis B-558 = assay: M.I.C. by standard serial dilution method; format: cell-based; settings: B558, B. subtilis B-558, nutrient agar, 37° C, 18 hours, read-out: minimum inhibitory concentration (M.I.C.)
# Procedure: as §1
# [12] = test system: Escherichia coli K-12 ML 1630; assay: M.I.C. by standard serial dilution method; format: cell-based; settings: K12ML1630, E. coli K-12 ML 1630, nutrient agar, 37° C, 18 hours, read-out: minimum inhibitory concentration (M.I.C.)
# Procedure: as §1
# [13] = test system: Escherichia coli K-12 ML 1629; assay: M.I.C. by standard serial dilution method; format: cell-based; settings: read-out: minimum inhibitory concentration (M.I.C.)
# Procedure: as §1
# [14] = test system: Pseudomonas aeruginosa TI-13; assay: M.I.C. by standard serial dilution method; format: cell-based; settings: TI13, P. aeruginosa TI-13, nutrient agar, 37° C, 18 hours, read-out: minimum inhibitory concentration (M.I.C.)
# Procedure: as §1
# Sarcina lutea PCl 1001 = assay: M.I.C. by standard serial dilution method; format: cell-based; settings: Micrococcus luteus, PCL1001, nutrient agar, 37° C, 18 hours, read-out: minimum inhibitory concentration (M.I.C.)
# Procedure: as §1
# [15] = test system: Escherichia coli K-12 ML 1410 R81; assay: M.I.C. by standard serial dilution method; format: cell-based; settings: 18 h, read-out: minimum inhibitory concentration (M.I.C.)
# Procedure: as §1
# Escherichia coli K-12 = assay: M.I.C. by standard serial dilution method; format: cell-based; settings: K12, E. coli K-12, nutrient agar, 37° C, 18 hours, read-out: minimum inhibitory concentration (M.I.C.)
# Procedure: as §1
# [16] = test system: Escherichia coli K-12 LA 290 R55; assay: M.I.C. by standard serial dilution method; format: cell-based; settings: K12LA290R55, 18 h, read-out: minimum inhibitory concentration (M.I.C.)
# Procedure: as §1
# Proteus rettgeri GN 466 = assay: M.I.C. by standard serial dilution method; format: cell-based; settings: Providencia rettgeri, read-out: minimum inhibitory concentration (M.I.C.)
# Procedure: as §1
# Escherichia coli NIHJ = assay: M.I.C. by standard serial dilution method; format: cell-based; settings: E. coli NIHJ, nutrient agar, 37° C, 18 hours, read-out: minimum inhibitory concentration (M.I.C.)
# Procedure: as §1
# [17] = test system: Escherichia coli K-12 LA 290 R64; assay: M.I.C. by standard serial dilution method; format: cell-based; settings: K12LA290R64, 18 h, read-out: minimum inhibitory concentration (M.I.C.)
# Procedure: as §1
# [18] = test system: Pseudomonas aeruginosa 99; assay: M.I.C. by standard serial dilution method; format: cell-based; settings: P. aeruginosa 99, nutrient agar, 37° C, 18 hours, read-out: minimum inhibitory concentration (M.I.C.)
# Procedure: as §1
# [19] = test system: Mycobacterium smegmatis ATCC 607; assay: M.I.C. by standard serial dilution method; format: cell-based; settings: Mycolicibacterium smegmatis, ATCC607, nutrient agar, 37° C, 48 hours, read-out: minimum inhibitory concentration (M.I.C.)
# Procedure: as §1
SMILES,antibacterial activity against resistant bacteria [1],MIC [2] [µg/mL],MIC [3] [µg/mL],MIC [4] [µg/mL],MIC (Proteus rettgeri GN 311) [µg/mL],MIC (Salmonella typhosa T-63) [µg/mL],MIC [5] [µg/mL],MIC [9] [µg/mL],MIC [10] [µg/mL],MIC [11] [µg/mL],MIC (Bacillus subtilis B-558) [µg/mL],MIC [12] [µg/mL],MIC [14] [µg/mL],MIC (Sarcina lutea PCl 1001) [µg/mL],MIC [15] [µg/mL],MIC (Escherichia coli K-12) [µg/mL],MIC [16] [µg/mL],MIC (Escherichia coli NIHJ) [µg/mL],MIC [17] [µg/mL],MIC [18] [µg/mL],also measured
NCCC(O)C(=O)N[C@@H]1C[C@H](N)[C@@H](O[C@H]2O[C@H](CN)CC[C@H]2N)[C@H](O)[C@H]1O[C@H]1O[C@H](CO)[C@@H](O)[C@H](N)[C@H]1O (stereo partly drawn) [1-N-(4-amino-2-hydroxybutyryl)-DKB],active against the kanamycin-resistant bacteria,,,,,,,,,,,,,,,,,,,,
NCC(O)C(=O)N[C@@H]1C[C@H](N)[C@@H](O[C@H]2O[C@H](CN)[C@@H](O)[C@H](O)[C@H]2N)[C@H](O)[C@H]1O[C@H]1O[C@H](CO)[C@@H](O)[C@H](N)[C@H]1O (stereo partly drawn) [1-N-isoserylkanamycin B],active against the kanamycin-resistant bacteria,,,,,,,,,,,,,,,,,,,,
NC[C@H]1O[C@H](O[C@H]2[C@H](O[C@@H]3O[C@H](CO)[C@@H](O)[C@H]3O)[C@@H](O)[C@H](N)C[C@@H]2N)[C@H](N)C[C@@H]1O [3'-deoxyribostamycin],high antibacterial activity against the above-mentioned resistant bacteria,,,,,,,,,,,,,,,,,,,,
"NC[C@H](O)C(=O)N[C@@H]1C[C@H](N)[C@@H](O[C@H]2O[C@H](CN)[C@@H](O)C[C@H]2N)[C@H](O[C@@H]2O[C@H](CO)[C@H](O)[C@H]2O)[C@H]1O [Compound No. 2, 1-n-((S)-3-amino-2-hydroxypropionyl)-3'-deoxy-5-O-β-D-xylofuranosylneamine]",,3.12,> 100,0.78,6.25,0.78,3.12,0.78,12.5,0.78,0.78,1.56,25,25,3.12,0.39,0.78,0.78,0.78,12.5,"MIC ([6]; 18 h): 1.56 µg/mL; MIC ([7]; 18 h): 1.56 µg/mL; MIC ([8]; PCI602, 18 h): 1.56 µg/mL; MIC ([13]; K12ML1629, 18 h): 1.56 µg/mL; MIC (Proteus rettgeri GN 466; GN466, 18 h): 1.56 µg/mL; MIC [19]: 0.39 µg/mL"
"NCC[C@H](O)C(=O)N[C@@H]1C[C@H](N)[C@@H](O[C@H]2O[C@H](CN)[C@@H](O)C[C@H]2N)[C@H](O[C@@H]2O[C@H](CN)[C@H](O)[C@H]2O)[C@H]1O [compound 4, 1-N-((S)-4-amino-2-hydroxybutyryl)-5-O-(5-amino-5-deoxy-β-D-xylofuranosyl)-3'-doxyneamine]",,0.39,> 100,0.78,3.12,0.2,0.78,0.2,3.12,0.39,0.2,0.78,3.12,3.12,0.78,0.2,0.39,0.2,0.39,3.12,"MIC ([6]; K. pneumoniae Type 22, No. 3038, nutrient agar, 37° C, 18 hours): 0.39 µg/mL; MIC ([7]; S. aureus FDA 209P, nutrient agar, 37° C, 18 hours): 0.39 µg/mL; MIC ([8]; PCI602, K. pneumoniae PCI 602, nutrient agar, 37° C, 18 hours): 0.39 µg/mL; MIC ([13]; K12ML1629, E. coli K-12 ML 1629, nutrient agar, 37° C, 18 hours): 0.39 µg/mL; MIC (Proteus rettgeri GN 466; GN466, Proteus rettgeri GN 466, nutrient agar, 37° C, 18 hours): 0.78 µg/mL; MIC [19]: 0.2 µg/mL"
NC[C@H]1O[C@H](O[C@H]2[C@H](O)[C@@H](O[C@H]3O[C@H](CO)[C@@H](O)[C@H](N)[C@H]3O)[C@H](N)C[C@@H]2N)[C@H](N)C[C@@H]1O [3'-deoxykanamycin B],high antibacterial activity against the above-mentioned resistant bacteria,,,,,,,,,,,,,,,,,,,,
